Assay results: ChEMBL document CHEMBL5576057, “Discovery of DS44470011: An oral hypoxia-inducible factor prolyl hydroxylase inhibitor for the treatment of renal anemia” (Bioorg Med Chem Lett, 2024)
pEC50, pIC50: −log10 of the molar value. Active and inactive are the calls of the source. The calls are words filed in the database; no cut-off is given here.

Experiments:
[1] = tested on: Hep 3B2; experiment: […] activity against human Hep3B cells assessed as increase of erythropoietin release by measuring effective concentration; assay type: functional, cell-based
[2] = molecular target: Egl nine homolog 1 (Homo sapiens, UniProt Q9GZT9)
[3] = tested on: Cynomolgus monkey; experiment: […] activity against Cynomolgous monkey assessed as increase of erythropoietin level in plasma at po administration measured after 12 hrs; assay type: functional, organism-based; settings: Macaca fascicularis
[4] = tested on: Cynomolgus monkey; experiment: animal or person; settings: Macaca fascicularis, in Primates, po, 24 h
[5] = AUC in Cynomolgous monkey at 3 mg/kg,po; assay type: ADME, organism-based, Macaca fascicularis; settings: cynomolgus monkey, in vivo
[6] = Metabolic stability in Cynomolgous monkey assessed as compound remaining; assay type: ADME, Macaca fascicularis; settings: cynomolgus monkey
[7] = Half life in Cynomolgous monkey at 1 mg/kg,iv; assay type: ADME, organism-based, Macaca fascicularis; settings: cynomolgus monkey, in vivo
[8] = Protein binding in Cynomolgous monkey assessed as assessed as unbound fraction; assay type: ADME, Macaca fascicularis; settings: cynomolgus monkey
[9] = Cmax in Cynomolgous monkey at 3 mg/kg,po; assay type: ADME, organism-based, Macaca fascicularis; settings: cynomolgus monkey, in vivo
[10] = Volume of distribution at steady state in Cynomolgous monkey at 1 mg/kg,iv; assay type: ADME, organism-based, Macaca fascicularis; settings: cynomolgus monkey, in vivo, read-out: Vdss
[11] = Lipophilicity, logD of the compound; assay type: physicochemical; settings: octanol/water

Sequence of Egl nine homolog 1 (Q9GZT9 whole entry): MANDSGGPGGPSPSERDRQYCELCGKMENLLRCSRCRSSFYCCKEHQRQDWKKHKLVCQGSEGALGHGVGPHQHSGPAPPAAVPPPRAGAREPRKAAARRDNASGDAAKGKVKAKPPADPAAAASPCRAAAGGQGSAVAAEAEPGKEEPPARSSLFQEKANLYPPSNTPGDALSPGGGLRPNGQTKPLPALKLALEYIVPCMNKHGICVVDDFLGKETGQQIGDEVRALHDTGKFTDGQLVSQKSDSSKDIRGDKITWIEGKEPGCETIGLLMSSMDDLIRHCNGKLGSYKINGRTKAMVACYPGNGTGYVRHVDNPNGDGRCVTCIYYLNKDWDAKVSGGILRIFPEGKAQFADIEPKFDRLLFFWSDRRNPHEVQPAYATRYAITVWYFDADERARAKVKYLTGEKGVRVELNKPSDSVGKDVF

SMILES | pEC50 [1] | pIC50 [2] | other results
Cc1nc(C(C)c2ccc(-c3ccccc3)cc2)nc(C(=O)NCC(=O)O)c1O (racemic) | 4.80 | 4.74 | –
Cc1nc(Cc2ccc(-c3ccccc3)cc2)c(O)c(C(=O)NCC(=O)O)n1 | 4.57 | 5.00 | –
Cc1nc(Cc2cccc(-c3ccccc3)c2)nc(C(=O)NCC(=O)O)c1O | 4.21 | 4.70 | –
Cc1nc(Cc2ccc(-c3ccccc3)cc2)nc(C(=O)N[C@@H](C)C(=O)O)c1O | 4.85 | 5.00 | –
O=C(O)CNC(=O)c1nc(Cc2ccc(-c3ccccc3)cc2)ncc1O | – | < 4.00 | –
CCc1nc(Cc2ccc(-c3ccccc3)cc2)nc(C(=O)NCC(=O)O)c1O | 4.80 | 5.14 | –
Cc1nc(Cc2ccc(-c3ccccc3)cc2)nc(C(=O)NCC(=O)O)c1S | 4.17 | 4.89 | –
Cc1nc(Cc2ccc(C(F)(F)F)cc2)nc(C(=O)NCC(=O)O)c1O | 4.54 | 4.96 | –
Cc1nc(Cc2ccc(Cl)cc2)nc(C(=O)NCC(=O)O)c1O | – | 4.77 | –
Cc1nc(CCc2ccc(F)cc2)c(O)c(C(=O)NCC(=O)O)n1 | 4.44 | 5.09 | –
Cc1nc(C(=O)NCC(=O)O)c(O)c(-c2ccc(F)cc2)n1 | 3.97 | 4.41 | –
Cc1nc(Cc2ccc(-c3ccccc3)cc2)nc(C(=O)NCC(=O)O)c1N | – | < 4.00 | –
Cc1nc(Cc2ccc(-c3ccccc3)cc2)nc(C(=O)NCC(=O)O)c1C | – | < 4.00 | –
O=C(O)CNC(=O)c1nc(Cc2ccc(-c3ccccc3)cc2)nc(C(F)F)c1O | 3.98 | 5.39 | –
O=C(O)CNC(=O)c1nc(Cl)c2ccccc2c1O | 4.19 | – | Activity [3]: Active; ED10 [4]: 13 mg/kg
Cc1nc(Cc2ccccc2-c2ccccc2)nc(C(=O)NCC(=O)O)c1O | – | 4.77 | –
Cc1nc(Cc2ccc(-c3ccccc3)cc2)nc(C(=O)NCC(=O)O)c1O | 5.08 | 5.82 | AUC [5]: 380 µg·h/mL; Activity [3]: Active; Stability [6]: 90%; ED10 [4]: 2.2 mg/kg; half-life [7]: 13 h; Fu [8]: 0.6%; Cmax [9]: 28000 ng/mL; Vd [10]: 0.06 L/kg; logD [11]: 0.8
Cc1nc(Cc2ccc(-c3ccccc3)cc2)nc(C(=O)NCC(=O)O)c1C(=O)O | – | < 4.00 | –
Cc1nc(Cc2ccc(-c3ccccc3)cc2)nc(C(=O)N[C@H](C)C(=O)O)c1O | – | < 4.00 | –
Cc1nc(C(F)(F)c2ccc(-c3ccccc3)cc2)nc(C(=O)NCC(=O)O)c1O | – | 4.26 | –
Cc1nc(Cc2ccc(C(C)(C)C)cc2)nc(C(=O)NCC(=O)O)c1O | 4.60 | 5.41 | –
Cc1nc(Cc2ccc(F)cc2)c(O)c(C(=O)NCC(=O)O)n1 | 4.29 | 4.96 | –
Cc1nc(C)c(O)c(C(=O)NCC(=O)O)n1 | – | 4.96 | –
